Test results published in US20150374784A1, “COMPOSITIONS AND METHODS FOR REDUCING GERM CELL DEATH” (Los Angeles Biomedical Research Institute at Harbor-UCLA …, priority 2014, published 2015).
Counter-ions that a name gives are not always drawn.

Key:
[1] = tested on: B16 melanoma cells; assay type: cell-based; settings: B16 cells in culture
Text: Furthermore, the autophagy induction of humanin may be related to its apparent effects of enhancing longevity observed in other systems.

[2] = tested on: cells; settings: Table 1, description of analogs; cited from earlier work
[3] = tested on: STAT3; experiment: STAT3 phosphorylation in testis by western blot; assay type: in vivo, mouse; settings: testis homogenates; for STAT3 phosphorylation (phosphorylated STAT3/STAT3) compared with control: treatment alone; for CP suppressed STAT3 (Ser727) phosphorylation: with CP 200 mg/Kg
Experimental: (§1) For the HN analog experiments, male mice were divided into seven groups (n=4-5 per group) and received one of the following treatments and sacrificed after 24 hours: 1) vehicle (control); 2) a single intra-peritoneal (IP) injection of HN peptide [HN, 40 mg/Kg body weight (BW)]; 3) a single IP injection of CP (CP, 200 mg/Kg BW); 4) IP injection of CP and HN (CP+HN); 5) a single IP injection of each HN analog (HNG 5 mg/Kg BW, HNG-F6A 5 mg/Kg BW, HN-S7A 40 mg/Kg BW, HN-C8P 40 mg/Kg BW, or HN-L12A 40 mg/Kg BW); 6) IP injection of CP and each HN analog (CP+HNG, HNG-F6A, HN-S7A, HN-C8P, or HN-L12A); and 7) IP injection of CP+HN+HN analog (HN-S7A, HN-C8P, or HN-L12A; to assess whether the analogs has enhancing or inhibitory effect on HN).
(§2) To facilitate testicular fixation by using a whole-body perfusion technique, all animals were injected with heparin (130 IU/100 g BW, IP) 15 min before a lethal injection of sodium pentobarbital (200 mg/kg BW, IP) (Lue Y H, et al., 1999). One testis was removed and weighed after perfusion with saline. Portions of testicular parenchyma were snap frozen in liquid nitrogen, and stored at −80 C for Western blotting. The other testis was fixed by vascular perfusion with Bouin's solution, and processed with routine paraffin embedding for in situ detection of apoptosis.
Western blotting was performed as described previously (Jia Y, et al., 2009). In brief, proteins were denatured and separated by sodium dodecyl sulfate-polyacrylamide gel electrophoresis (SDS-PAGE) system (Invitrogen, Carlsbad, Calif.). After transferring, the Immuno-blot PVDF Membrane (Bio-Rad, Hercules, Calif.) was blocked for 1 h and then probed using anti-STAT3 or anti-pSer727 STAT3 (Cell signaling Technology, Inc., Beverly, Mass.) overnight at 4 C with constant shaking. After washing, membrane was then incubated with an anti-mouse (for STAT3 antibody, Santa Cruz Biotechnology, Santa Cruz, Calif.) or anti-rabbit (for pSer727 STAT3 antibody, Amersham Biosciences, Piscataway, N.J.) IgG-HRP secondary antibody. All antibodies were diluted in blocking buffer. For immunodetection, membrane was incubated with enhanced chemiluminescence solutions per the manufacturer's specifications (Amersham Biosciences, Piscataway, N.J.), and exposed to Hyperfilm ECL (Denville Scientific Inc., Metuchen, N.J.).

[4] = tested on: IGFBP-3, membrane receptor, BAX, HN; settings: Table 1, description of analogs; cited from earlier work
[5] = tested on: male germ cells; assay type: in vivo, mouse; settings: for effect of adding the analog on the preventive effect of HN against CP-induced germ cell apoptosis: each peptide 40 mg/kg BW; for spontaneous germ cell apoptosis, peptide alone: single IP, 24 hours, no CP; for effect on CP-induced germ cell apoptosis, early+late stages / inhibition of (protection against) CP-induced germ cell apoptosis, early+late stages: stages I-IV and XI-XII; for effect on CP-induced germ cell apoptosis, early+late stages / effect on CP-induced germ cell apoptosis, middle stages: 40 mg/kg BW; for inhibition of (protection against) CP-induced germ cell apoptosis, early+late stages: HN, HN-C8P 40 mg/kg BW
Experimental: as §1, §2
Detection of apoptotic cells was performed in Bouin's′-fixed, paraffin-embedded testicular sections by the terminal deoxynucleotidyl transferase (TdT)-mediated deoxy-UTP nick end labeling (TUNEL) technique (Sinha Hikim A P, et al., 1997) using an ApopTag-peroxidase kit (Chemicon International, Inc., Temecula, Calif.). Enumeration of the Sertoli cell nuclei with distinct nucleoli and apoptotic germ cell population was quantified at stages I-IV (early stages), stages VII-VIII (middle stages) and stages XI-XII (late stages) of the seminiferous epithelial cycle using an Olympus BH-2 microscope (New Hyde Park, N.Y.). Stages were identified according to the criteria proposed by Russell et al for paraffin sections (Russell L, 1977). The rate of germ cell apoptosis (apoptotic index, AI) was expressed as the number of apoptotic germ cells per Sertoli cells (Sinha Hikim A P, et al., 1997).

[6] = tested on: Leydig cells; experiment: Leydig cell depletion and testosterone levels in rats; assay type: in vivo, rat
[7] = tested on: male germ cells; settings: EDS 80 mg/kg IP 3 days before; CP 70 mg/kg BW
[8] = tested on: germ cells in seminiferous tubules; experiment: Germ cell apoptosis in mouse seminiferous tubule cultures ex vivo (TUNEL); assay type: cell-based; settings: 12 hours; for germ cell apoptosis (number of apoptotic germ cells) compared to control: DOX 10 μM (high dose), hydrochloride
Experimental: A total of 15 young adult (12-13 week-old) mice were used for these ex vivo studies. The animals were sacrificed with a 5% pentobarbital (200 mg/Kg) IP injection. Testes were dissected and after removing the tunica albuginea, seminiferous tubules isolated from testes were cut into small segments under a dissecting microscope and light and dark segments were separated by dissection. Ten to twelve segments were placed (2 mm in length) in each well on a six well plate with 2 ml serum free Ham F-10 culture medium (GIBCO, Life Technologies, Thermo Fisher Scientific Corp., Carlsbad, Calif.) with the following treatments: control (Con, n=10), heat (43° C., 15 minutes, used as a positive control, n=10); HN 10 μg/mL (n=9); DOX 10 mcM (Dox10, n=10); and DOX 10 mcM+Humanin 10 μg/mL (Dox10+HN, n=10). For these experiments, n represents the total number of times the treatment was repeated using different animals. After 12 hours of incubation at 34° C. the seminiferous tubules from each treatment group were used to make “squashed” seminiferous tubule samples on a slide for TUNEL (TdT-mediated dUTP nick-end labeling) assay to detect germ cell apoptosis (Erkkila, et al., 1997; Toppari & Parvinen, 1985). To quantify the rate of germ cell apoptosis under a light microscope at 400× magnification, a square grid fitted within the eyepiece provided a reference area of 62,500 μm^2. The TUNEL positive apoptotic germ cells within the frame of grid were counted in 4 segments of seminiferous tubules in each group. The incidence of germ cell apoptosis was expressed as the number of apoptotic germ cells per mm^2.
A total of 15 mice were used for ex vivo studies. The animals were sacrificed and seminiferous tubules isolated from testes were cut into small segments under a dissecting microscope to identify light (early stages I-IV and late stages XI-XII) of the seminiferous epithelium) and dark (middle stages VII-VIII) segments. Ten to twelve light segments (2 mm in length) were placed per well on a six well plate with 2 ml serum free medium of F-10 Ham nutrient mixture (Gibco, Life Technologies, Grand Island, N.Y.) following these treatments: control (Con, n=15 where n is the number of times the treatment was repeated with segments obtained from different donor animals), heat (43° C., 15 min.; used as a positive control, n=10), HN 10 μg/mL (HN, n=9), doxorubicin 1 μM (Dox1, n=7), doxorubicin 1 μM+HN 10 μg/mL (Dox1+HN, n=7), doxorubicin 10 μM (Dox10, n=10), and doxorubicin 10 μM+HN 10 μg/mL (Dox10+HN, n=10). After 12 hours of incubation at 34° C. with 5% CO2, the seminiferous tubules from the seven treatment groups were used to make “squashed” seminiferous tubule preparations on a slide for TUNEL assay to detect germ cell apoptosis (Erkkila K, et al., 1997). To quantify the rate of germ cell apoptosis, the squashed segments of seminiferous tubules were examined with an American Optical Microscope (Scientific Instruments, Buffalo, N.Y.) with a 40×objective and a 10×eyepiece lens. A square grid fitted within the eyepiece provided a reference area of 62,500 μm^2. The TUNEL positive apoptotic germ cells within the frame of grid were counted in 4 segments of seminiferous tubules in each group. The incidence of germ cell apoptosis was expressed as the number of apoptotic germ cells per mm^2.

[9] = rats, EDS 80 mg/kg, CP 70 mg/kg BW, HN 40 mg/kg BW, with or without EDS pre-treatment

Compound	Cytoprotective Action [2]	Characteristics [4]	effect of adding the analog on the preventive effect of HN against CP-induced germ cell apoptosis [5]	spontaneous germ cell apoptosis, peptide alone [5]	effect on CP-induced germ cell apoptosis, early+late stages [5]	effect on CP-induced germ cell apoptosis, middle stages ([5]; stages VII-VIII)	other results
CCN(CC)CCCC(C)Nc1ccnc2cc(Cl)ccc12 (stereo not drawn) [chloroquine]							additive effect of humanin in doxorubicin treated B16 cells, with autophagy inhibitor [1]: diminished the additive effect of humanin
MAPRGFACLLLLTSEIDLPVKRRA [HN-S7A]	Not effective, prevents HN self-	Loss of membrane receptor	did not change the effect of HN on CP-induced apoptosis	did not change the spontaneous germ cell apoptosis	inhibited	had better protective effect than HN	STAT3 phosphorylation (phosphorylated STAT3/STAT3) compared with control [3]: did not change STAT3 phosphorylation; CP suppressed STAT3 (Ser727) phosphorylation [3]: restored CP-induced Ser 727-phosphorylation of STAT3
HN-L12A: HN with a substitution of alanine for 12th leucine, HN antagonist dimerizes with HN preventing HN binding to receptor (MAPRGFSCLLLATSEIDLPVKRRA)	HN antagonist, forms inactive dimer		completely blocked the preventive effect of HN	did not change the spontaneous germ cell apoptosis	unable to rescue	unable to rescue	
CS(=O)(=O)OCCOS(C)(=O)=O [EDS, ethane dimethanesulfonate]							Leydig cells in the interstitial spaces (testis histology) ([6]; EDS for three days): depletion of Leydig cells; intratesticular testosterone levels [6, 9]: decreased to very low levels; serum testosterone levels [6, 9]: decreased to very low levels; germ cell apoptosis at early (I-VI) and late (IX-XIV) stages, EDS pre-treated rats, compared to control [7]: did not significantly increase germ cell apoptosis; germ cell apoptosis in middle (VII-VIII) stages, EDS pre-treated rats [7]: had significant acute cytotoxic effects on germ cells
MAPRGASCLLLLTSEIDLPVKRRA [HN-F6A]	Similar/more effective than HN.	Loss of IGFBP-3 binding					
MAPRGFSALLLLTSEIDLPVKRRA [HN-C8A, HN mutant, Cys8 to Ala]	Not effective, prevents HN self-	Loss of membrane receptor					
Cn1cnc(N)c2ncnc1-2 [3-MA]							additive effect of humanin in doxorubicin treated B16 cells, with autophagy inhibitor [1]: diminished the additive effect of humanin
MAPRGASCLLLLTGEIDLPVKRRA [HNG-F6A]				did not change spontaneous germ cell apoptosis			inhibition of (protection against) CP-induced germ cell apoptosis, early+late stages ([5]; HNG, HNG-F6A 5 mg/kg BW): ~38%; prevention of CP-induced germ cell apoptosis, middle stages ([5]; stages VII-VIII, HNG, HNG-F6A 5 mg/kg BW): ~42%
COc1cccc2c1C(=O)c1c(O)c3c(c(O)c1C2=O)C[C@@](O)(C(=O)CO)C[C@@H]3O[C@H]1C[C@H](N)[C@H](O)[C@H](C)O1 [DOX, doxorubicin hydrochloride, reference compound]							germ cell apoptosis (number of apoptotic germ cells) compared to control [8]: significantly higher number of apoptotic germ cells; germ cell apoptosis (number of apoptotic germ cells) compared to control ([8]; listed as doxorubicin): significantly increased apoptosis; germ cell apoptosis compared with control ([8]; doxorubicin 1 μM (low dose)): increased apoptosis but did not reach statistical difference
MAPRGFSPLLLLTSEIDLPVKRRA [HN-C8P]	Not effective, blocks intracellular HN	Loss of BAX binding	did not change the preventive effect of HN	did not change the spontaneous germ cell apoptosis	showed less protection against CP-induced apoptosis	no significant effect in middle (VII-VIII) stages	STAT3 phosphorylation (phosphorylated STAT3/STAT3) compared with control [3]: did not change STAT3 phosphorylation; CP suppressed STAT3 (Ser727) phosphorylation [3]: restored CP-induced Ser 727-phosphorylation of STAT3; inhibition of (protection against) CP-induced germ cell apoptosis, early+late stages ([5]; HNG, HNG-F6A 5 mg/kg BW): ~30%
